Source: US20180230160A1, “2-AMINO-7A-PHENYL-3,4,4A,5,7,7A-HEXAHYDROFURO[3,4-B]PYRIDINES AS BACE1 INHIBITORS” (H. Lundbeck A/S, priority 2015, published 2018)

Target: human BACE1 (Homo sapiens, UniProt P56817)
Assay: BACE1 binding assay (SPA-based radioligand binding)
Design: biotin (biotinylated form); made in house; host or cells: Freestyle HEK293 cells
Details: pH 4.5, 10 nM radioligand, Ki=IC50/(1+L/Kd)
In short: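 SPA radioligand displacement: biotinylated human BACE1 (HEK293-expressed, 6 nM final) with 10 nM [3H]-isophthalamide ligand and streptavidin beads in 50 mM sodium acetate pH 4.5, 50 mM NaCl, 0.03% Tween-20, 1 h at room temperature. Non-specific binding defined with 1 μM reference inhibitor. IC50 converted to Ki via Cheng-Prusoff using saturation-derived Kd.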

human BACE1, sequence (P56817 46-501): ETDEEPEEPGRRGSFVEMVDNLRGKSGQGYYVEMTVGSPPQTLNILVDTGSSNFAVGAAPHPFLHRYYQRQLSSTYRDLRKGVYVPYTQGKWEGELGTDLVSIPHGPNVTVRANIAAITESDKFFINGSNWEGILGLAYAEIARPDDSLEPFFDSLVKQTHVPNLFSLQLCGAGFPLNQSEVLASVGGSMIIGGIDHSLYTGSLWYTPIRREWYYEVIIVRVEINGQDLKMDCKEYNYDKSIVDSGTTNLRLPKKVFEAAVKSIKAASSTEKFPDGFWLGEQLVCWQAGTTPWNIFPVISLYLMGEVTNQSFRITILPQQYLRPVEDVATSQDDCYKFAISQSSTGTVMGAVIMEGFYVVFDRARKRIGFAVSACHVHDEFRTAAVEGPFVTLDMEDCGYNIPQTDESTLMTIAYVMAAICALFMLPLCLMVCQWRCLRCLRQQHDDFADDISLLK

| SMILES | Ki [nM] |
| --- | --- |
| COc1cnc(C(=O)Nc2ccc(F)c([C@]34COC[C@@]3(F)C[C@@](C)(F)C(N)=N4)c2)cn1 [Example 7, N-(3-((3R,4aR,7aS)-2-amino-3,4a-difluoro-3-methyl-3,4,4a,5,7,7a-hexahydrofuro[3,4-b]pyridin-7a-yl)-4-fluorophenyl)-5-methoxypyrazine-2-carboxamide] | 11 |
| [2H]C([2H])([2H])Oc1ccc(C(=O)Nc2ccc(F)c([C@]34COC[C@H]3C[C@@](F)(CF)C(N)=N4)c2)nc1 [Example 22, N-(3-((3S,4aS,7aS)-2-amino-3-fluoro-3-(fluoromethyl)-3,4,4a,5-tetrahydrofuro[3,4-b]pyridin-7a-yl)-4-fluorophenyl)-5-(methoxy-d3)picolinamide] | 51 |
